Type in all cases: cell-based, rat
In assay [1] the test system is LPS-induced microglia activation. The assay is described as follows: Image-based assay of LPS-induced microglia activation (HTS and dose response).
In assay [2] the test system is fibrin-induced microglia activation. The assay is described as follows: Image-based assay of fibrin-induced microglia activation (HTS and dose response). Particulars: for inhibition at 10 µM: read-out: Fibrin % inhibition.
Assay [3] has as its system fibrin- and LPS-induced microglia activation. Briefly: cells.
Where [4] appears, read: classification by fibrin and LPS inhibition in HTS.
The mark [5] stands for this setting: Rattus norvegicus, Microglia, read-out: LPS % inhibition.
Where [6] appears, read: Rattus norvegicus, Microglia, primary microglia HTS, 10 μM, LPS-stimulated, cell size >800 μm^2 as marker of activation; read-out: LPS % inhibition.
Where [7] appears, read: Rattus norvegicus, Microglia, primary microglia HTS, 10 μM, fibrin-stimulated, cell size >800 μm^2 as marker of activation.
Where [8] appears, read: HTS of 1907 compounds, quadrant by fibrin and LPS inhibition.
Where [9] appears, read: quadrant by fibrin and LPS inhibition, HTS at 10 μM.
[10] abbreviates: Hill slope of LPS dose response; Table 7.
Setting [11] is: Hill slope of fibrin dose response, Table 7.
Setting [12] is: Table 7, fib = fibrin, LPS, tox = toxicity.
Setting [13] is: Rattus norvegicus, Microglia, Table 7; read-out: LPS_IC50.
Setting [14] is: Rattus norvegicus, Microglia, Table 7, read-out: fib_IC50.

Where a name gives a salt, the structure may show the parent alone. Read-outs that look alike come from different tables or passages of the source. Bounds are passed on as bounds.

With `CN1CCc2cccc3c2[C@H]1Cc1ccc(O)c(O)c1-3.Cl` [R(−)-Apomorphine hydrochloride, reference compound], the LPS % inhibition in assay [1] came out at 18%. Further, the IC50 was 14 µM in assay [1] (Table 1; dose response 0.001-20 μM, triplicates, primary rat microglia, 48 h; read-out: LPS IC50); 14 µM in assay [1] (read-out: LPS IC50); 14 µM in assay [1] (read-out: LPS IC50 (uM) (Suppl. Table 7)); above 20 µM in assay [2] (Table 1, dose response 0.001-20 μM, triplicates, primary rat microglia, 48 h, read-out: Fibrin IC50); above 20 µM in assay [2] (read-out: Fibrin IC50); above 20 µM in assay [2] (read-out: Fibrin IC50 (uM) (Suppl. Table 7)). In addition, in assay [2], the Fibrin % inhibition was determined as 63%. Further, in assay [3], the “Cherry-picked Hit (Suppl. Table 7)” value is listed as “HIT (key: HIT: Hits were defined as molecules that exhibited greater than 50% inhibition of either fibrin or LPS activation)”. Further, the Hit entry in assay [3] is “HIT (key: HIT: Hits were defined as molecules that exhibited greater than 50% inhibition of either fibrin or LPS activation)”. Further, the “Quadrant (FIG. 5b)” value in assay [3] was “Q3”; in assay [3] (Table 1, screen at 10 μM), “Q3”.

Take `CNC(C)C(O)c1ccccc1` (stereo not drawn) [Racephedrine Hydrochloride]: the inhibition (commonly the relative decrease from the control value, in per cent) at 10 µM in assay [1] (Rattus norvegicus, Microglia, 48 h; read-out: LPS % inhibition) is 17%; in assay [2] (Rattus norvegicus, Microglia, primary microglia HTS, fibrin stimulation, cell size >800 μm2 as marker of activation) it was -26%. Besides, in assay [3] (setting [4]), the “Quadrant (FIG. 5b)” value is on record as “Q4”.

Regarding `Cc1cc2nc3c(=O)[nH]c(=O)nc-3n(C[C@H](O)[C@H](O)[C@H](O)COP(=O)([O-])O)c2cc1C.[Na+]` [Riboflavin 5-phosphate Sodium], the LPS % inhibition in assay [1] was 24%. In assay [2] (primary microglia HTS, fibrin stimulation, cell size >800 μm2 as marker of activation), the Fibrin % inhibition is recorded as 11%. Moreover, in assay [3] (setting [4]), the “Quadrant (FIG. 5b)” value is given as “Q4”.

Take `Nc1nc2ccc(OC(F)(F)F)cc2s1` [Riluzole]: the inhibition at 10 µM came out at 7% in assay [1] (Rattus norvegicus, Microglia, 48 h, read-out: LPS % inhibition) and 0% in assay [2] (Rattus norvegicus, Microglia). Further, the “Quadrant (FIG. 5b)” value in assay [3] was “Q4”.

On to `CN1[C@@H]2C[C@@H](OC(=O)[C@H](CO)c3ccccc3)C[C@H]1[C@@H]1O[C@@H]12` [Scopolamine Hydrobromide], for which the LPS % inhibition in assay [1] was 3%. Besides, the Fibrin % inhibition in assay [2] came out at 5%. For the same compound, in assay [3], the “Quadrant (FIG. 5b)” value was “Q4”.

Regarding `CN1[C@@H]2C[C@@H](OC(=O)[C@H](CO)c3ccccc3)C[C@H]1[C@@H]1O[C@@H]12` [Scopolamine], the LPS % inhibition in assay [1] was −6%. For the same compound, in assay [2], the Fibrin % inhibition is listed as −26%. In assay [3], the “Quadrant (FIG. 5b)” value was “Q4”.

Take `CN(N=O)C(=O)N[C@@H](C=O)[C@@H](O)[C@H](O)[C@H](O)CO` [Streptozocin]: the inhibition at 10 µM is 19% in assay [1] (setting [5]) and -30% in assay [2] (Rattus norvegicus, Microglia). For the same compound, the “Quadrant (FIG. 5b)” value in assay [3] is given as “Q4”.

As to `Cc1cc(NS(=O)(=O)c2ccc(N)cc2)no1` [Sulfamethoxazole], the inhibition at 10 µM was 17% in assay [1] (setting [5]) and -17% in assay [2] (Rattus norvegicus, Microglia). The “Quadrant (FIG. 5b)” value in assay [3] is given as “Q4”.

Regarding `Nc1ccc(S(N)(=O)=O)cc1` [Sulfanilamide], the inhibition at 10 µM in assay [1] (setting [5]) was 11%; in assay [2] (Rattus norvegicus, Microglia) it was -14%. The “Quadrant (FIG. 5b)” value in assay [3] is recorded as “Q4”.

As to `CC/C(=C(\c1ccccc1)c1ccc(OCCN(C)C)cc1)c1ccccc1` [Tamoxifen], the inhibition at 10 µM in assay [1] (setting [5]) amounted to 5%; in assay [2] (Rattus norvegicus, Microglia) it was 14%. Also, the “Quadrant (FIG. 5b)” value in assay [3] is recorded as “Q4”.

Turning to `CC(C)(C)c1ccc(C(O)CCCN2CCC(C(O)(c3ccccc3)c3ccccc3)CC2)cc1` (stereo not drawn) [Terfenadine], the inhibition at 10 µM worked out at 7% in assay [1] (setting [5]) and 19% in assay [2] (Rattus norvegicus, Microglia). In assay [3], the “Quadrant (FIG. 5b)” value is given as “Q4”.

Take `CCC(=O)O[C@H]1CC[C@H]2[C@@H]3CCC4=CC(=O)CC[C@]4(C)[C@H]3CC[C@]12C` [Testosterone Propionate]: the inhibition at 10 µM was found to be 8% in assay [1] (setting [6]) and 21% in assay [2] (setting [7]). Also, in assay [3] (setting [8]), the “Quadrant (FIG. 5b)” value was “Q4”.

For `C[C@]12CC[C@H]3[C@@H](CCC4=CC(=O)CC[C@@]43C)[C@@H]1CC[C@@H]2O` [Testosterone], the inhibition at 10 µM in assay [1] (setting [5]) is 5%; in assay [2] (Rattus norvegicus, Microglia) it was -1%. Further, in assay [3], the “Quadrant (FIG. 5b)” value is listed as “Q4”.

Regarding `Nc1nc2nc[nH]c2c(=S)[nH]1` [Tioguanine], the inhibition at 10 µM is 18% in assay [1] (setting [5]) and 12% in assay [2] (Rattus norvegicus, Microglia). Moreover, the “Quadrant (FIG. 5b)” value in assay [3] is “Q4”.

For the compound `CCC1=C[C@@H]2CN(C1)Cc1c([nH]c3ccccc13)[C@@](C(=O)OC)(c1cc3c(cc1OC)N(C)[C@H]1[C@@](O)(C(=O)OC)[C@H](OC(C)=O)[C@]4(CC)C=CCN5CC[C@]31[C@@H]54)C2` [Vinorelbine], the inhibition at 10 µM was -11% in assay [1] (setting [6]); 106% in assay [1] (Rattus norvegicus, Microglia, primary microglia HTS, LPS stimulation, compounds at 10 μM; read-out: LPS % inhibition); -12% in assay [2] (setting [7]); 108% in assay [2] (Rattus norvegicus, Microglia, primary microglia HTS, fibrin stimulation, compounds at 10 μM). Also, the entries for the “Quadrant (FIG. 5b)” value in assay [3] (setting [8]) and in assay [3] (setting [9]) were “Q4” and “Q2”, respectively.

Take `O=C1O[C@H]([C@@H](O)CO)C(O)=C1O` [Vitamin C]: the LPS % inhibition in assay [1] (primary microglia HTS, 10 μM, LPS-stimulated, cell size >800 μm^2 as marker of activation) is reported as 18%. Besides, the Fibrin % inhibition in assay [2] (primary microglia HTS, 10 μM, fibrin-stimulated, cell size >800 μm^2 as marker of activation) is −28%. The “Quadrant (FIG. 5b)” value in assay [3] (setting [8]) is “Q4”.

In the case of `COc1cc([C@@H]2c3cc4c(c(O)c3C[C@H]3COC(=O)[C@@H]32)OCO4)cc(OC)c1OC` [beta-peltatin], in assay [1] (setting [10]), the LPS_HS was −1.50. Besides, the LPS specificity in assay [1] (Table 7) turned out to be 2.0. For the same compound, the IC50 stood at 0.252 µM in assay [1] (Table 7; read-out: LPS_IC50) and 0.505 µM in assay [2] (Table 7, read-out: fib_IC50). Besides, in assay [2] (setting [11]), the fib_HS is −2.10. The same compound registered a fib specificity in assay [2] (Table 7) of 0.5. In addition, the Activity entry in assay [3] (setting [12]) was “fib/LPS”.

As for `O=C1C=C2CC3(O)COc4cc(O)ccc4C3=C2C=C1O` (stereo not drawn) [brazilein], the IC50 in assay [1] (setting [13]) came out at 2.17 µM; in assay [2] (setting [14]), 1.47 µM. Moreover, the Activity result in assay [3] (setting [12]) is “fib/LPS”.

For the compound `Cn1nnnc1SCC1=C(C(=O)O)N2C(=O)[C@@H](NC(=O)[C@H](O)c3ccccc3)[C@H]2SC1` [cefamandole sodium], the IC50 in assay [1] (setting [13]) is 0.002 µM; in assay [2] (setting [14]), 0.052 µM. Moreover, in assay [3] (setting [12]), the Activity result is “fib/LPS”.

As for `C[C@@H]1CCC[C@H](C)N1NC(=O)c1ccc(Cl)c(S(N)(=O)=O)c1` [clopamide], the IC50 was found to be 0.002 µM in assay [1] (setting [13]) and 0.003 µM in assay [2] (setting [14]). Besides, the Activity result in assay [3] (setting [12]) is “fib/LPS”.

Take `COc1cc2c(c(OC)c1OC)-c1ccc(=O)c(O)cc1[C@@H](NC(C)=O)CC2` [colchiceine]: the IC50 came to 0.82 µM in assay [1] (setting [13]) and 0.625 µM in assay [2] (setting [14]). Further, the Activity entry in assay [3] (setting [12]) is “fib/LPS”.

Regarding `C=C[C@@]1(C)CC(=O)[C@]2(O)[C@@]3(C)[C@@H](O)CCC(C)(C)[C@@H]3[C@H](O)[C@H](OC(C)=O)[C@@]2(C)O1` [colforsin], the IC50 in assay [1] (setting [13]) was 1.35 µM; in assay [2] (setting [14]) it was 2.08 µM. In assay [3] (setting [12]), the Activity entry is recorded as “fib/LPS”.

For `CO[C@@H]1C[C@@H](C[C@H]2CC[C@H](C)[C@H]([C@@H](C)C(=O)O)O2)O[C@]2(O[C@](C)([C@H]3CC[C@@](C)([C@@H]4O[C@@H]([C@H]5O[C@@](O)(CO)[C@H](C)C[C@@H]5C)C[C@@H]4C)O3)C[C@H]2C)[C@@H]1C` [nigericin sodium], the IC50 in assay [1] (setting [13]) was found to be 0.065 µM; in assay [2] (setting [14]), 0.206 µM. Further, in assay [3] (setting [12]), the Activity entry is recorded as “fib/LPS”.

With Adipic Acid, Hexanedioic Acid, in assay [1] (primary microglia HTS, LPS stimulation, compounds at 10 μM), the LPS % inhibition is 8%. Further, the Fibrin % inhibition in assay [2] (primary microglia HTS, fibrin stimulation, compounds at 10 μM) is listed as −24%. Moreover, the “Quadrant (FIG. 5b)” value in assay [3] (setting [9]) is listed as “Q4”.

For Beta-escin, the LPS % inhibition in assay [1] (primary HTS, 10 μM, LPS-stimulated primary microglia) is 11%. Also, the Fibrin % inhibition in assay [2] (primary HTS, 10 μM, fibrin-stimulated primary microglia) is −11%. Moreover, the “Quadrant (FIG. 5b)” value in assay [3] (primary HTS, 10 μM) is on record as “Q4”.

For the compound FluoromethoIone [reference compound], in assay [1] (setting [10]), the LPS_HS is on record as 0.00. Besides, the LPS specificity in assay [1] (Table 7) came out at 1.0. This compound had a fib_HS in assay [2] (setting [11]) of −0.27. This compound also registered a fib specificity in assay [2] (Table 7) of 1.0. The “Quadrant (FIG. 5b)” value in assay [3] (Table 2, screen at 10 μM) was “Q2”. Also, the Activity result in assay [3] (setting [12]) was “fib/LPS”.

As for Hexylene Glycol, the LPS % inhibition in assay [1] (primary microglia HTS, LPS stimulation, activation = cell size >800 μm2) was determined as 12%. Also, the Fibrin % inhibition in assay [2] (primary microglia HTS, fibrin stimulation, activation = cell size >800 μm2) is given as −8%. For the same compound, the “Quadrant (FIG. 5b)” value in assay [3] (quadrant by fibrin and LPS inhibition in HTS of 1907 compounds) is “Q4”.

In assay [1], “Hydrocortisone sodium phosphate [reference compound]” showed an LPS specificity of 0.8 and an LPS_HS of −0.69. In addition, the IC50 in assay [1] (read-out: LPS_IC50) came out at 0.161 µM. Moreover, in assay [2], the fib specificity turned out to be 1.3 and the fib_HS was −0.52. In addition, the IC50 in assay [2] (read-out: fib_IC50) worked out at 0.128 µM. Moreover, in assay [3], the Activity entry is given as “fib/LPS” and the “Quadrant (FIG. 5b)” value is “Q2”.

Source of the values: patent US20210330611A1, “THERAPY FOR NEUROLOGICAL DISEASES/DISORDERS” (priority 2020, published 2021).
